This is an account of results in patent publication US20230151037A1, “GPR40 AGONISTS” (Kallyope, Inc., priority 2020, published 2023).

SMILES strings stand for the structures.

One series deals with T1, human GPR40 (Homo sapiens, UniProt O14842).
T1 construct: host or cells: CHO-K1
Description: Inositol phosphate accumulation assay (IP1 HTRF) in CHO-K1 cells expressing human GPR40. Format: cell-based. The conditions noted are these: 90 min. Here is the method:
CHO-K1 cells expressing human GPR40 were purchased from DiscoverX (95-1005C2). HEK293 cells expressing mouse FFAR1 were prepared using a mouse FFAR1 carrying plasmid purchased from OriGene Technologies (MR222997). The cells were transfected using Lipofectamine 2000 using manufacturer instructions and stable cell line was established from a single cell using geneticine selection. Assay ready frozen (ARF) cells were prepared and used throughout the study.
The assay was performed in a 384-well plate format using IP1 assay kit from Cis-Bio. ARF cells expressing FFAR1 (mouse and human) were thawed, washed and then plated in the appropriate medium (F12 based medium for CHO hFFAR1 and DMEM based medium for HEK293 mFFAR1-both were supplemented with 10% FBS and penicillin/streptomycin). 20 μL of 3.5×10^5 cells/mL were plated on a Poly D-Lysine coated 384-well white plate. The cells were then incubated for 16 hr at 37° C./5% CO2. After 16 hr the medium was removed and 15 μL of stimulation buffer containing the test compounds was added to the cells. The plates were then incubated for 90 min at 37° C./5% CO2. 5 μL of detection buffer (prepared as described in the IP-one kit) was added to each well and the plates were incubated at RT for 1 hr.
[…] was measured using ClarioSTAR plate reader, calculating the ratio between emissions at 665 nm and 620 nm (HTRF ratio). HTRF ratio for positive (Max) and negative (Min) controls were used to normalize HTRF data and generate values for % activity. EC50 and Max activity values were determined using a standard 4-parameter fit.
A general note: In TR-FRET formats the signal depends on donor and acceptor labels being close together.

The nature of series [1]: In vivo plasma levels in mice after oral gavage, with unbound exposure from plasma protein binding. The conditions noted are these: male C57BL/6J mice, 30 mg/kg oral gavage; for Exposure (nM) (unbound), unbound exposure in plasma: total exposure x free fraction; for concentration at 5 h / concentration at 2 h: mouse, plasma, read-out: Exposure (nM), total exposure in plasma. Here is the method: Male C57BL/6J mice 10-12 weeks old were dosed with test article (30 mg/kg) or vehicle by oral gavage. Animals were euthanized with carbon dioxide at 2 h or 5 h post dose. Blood was collected for measurement of plasma concentrations of test article. Unbound exposure was calculated by multiplying the measured total exposure by the free fraction as assessed from plasma protein binding.
Plasma protein binding to isotonic phosphate buffer (PBS) containing 10% C57 BL/6 mouse plasma was determined using equilibrium dialysis of plasma spiked with test article (2 μM) against a dialysis buffer (100 mM sodium phosphate and 150 mM NaCl). At the end of the dialysis (4 hr), aliquots of the plasma and buffer were processed by protein precipitation for LC-MS/MS analysis to quantitate the test article.
Results for exemplary compounds (total exposure in plasma and unbound exposure in plasma; ratio of EC50 to unbound exposure in plasma) are shown in Table 2.

T1 sequence (O14842 whole entry): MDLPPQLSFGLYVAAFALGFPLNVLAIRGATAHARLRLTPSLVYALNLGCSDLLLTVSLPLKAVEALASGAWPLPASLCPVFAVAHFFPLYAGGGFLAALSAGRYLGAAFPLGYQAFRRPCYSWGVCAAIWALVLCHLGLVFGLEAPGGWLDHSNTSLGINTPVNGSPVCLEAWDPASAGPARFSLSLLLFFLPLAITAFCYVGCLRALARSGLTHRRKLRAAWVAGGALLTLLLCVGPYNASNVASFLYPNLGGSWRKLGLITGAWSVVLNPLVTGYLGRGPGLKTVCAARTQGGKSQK

Usually EC50 stands for the concentration at which the effect is half-maximal. High values mean a less potent agent, low ones a more potent agent. Turning to `COc1cccc(-c2ccc(COc3cccc([C@@H](CP(C)(=O)O)C4CC4)c3)cc2[C@@H](OC)C(C)(C)C)c1` [Compound 29, ((S)-2-cyclopropyl-2-(3-((3′-methoxy-2-((S)-1-methoxy-2,2-dimethylpropyl)-[1,1′-biphenyl]-4-yl)methoxy)phenyl)ethyl)(methyl)phosphinic acid], on human GPR40, the EC50 is no more than 50 nM. Besides, in series [1] (5 h post-dose), the “Exposure (nM) (unbound), unbound exposure in plasma” value (“Exposure (nM) (unbound)” for short) worked out at 0.06 nM and the concentration at 5 h was found to be 140 nM.
Compound `COc1cc(-c2ccc(COc3cccc([C@@H](CP(C)(=O)O)C4CC4)c3)cc2[C@@H](OC)C(C)(C)C)c(F)cn1` [Compound 25, ((S)-2-cyclopropyl-2-(3-((4-(5-fluoro-2-methoxypyridin-4-yl)-3-((S)-1-methoxy-2,2-dimethylpropyl)benzyl)oxy)phenyl)ethyl)(methyl)phosphinic acid] had a concentration for a half-maximal effect (EC50) on human GPR40 of no more than 50 nM. Also, in series [1] (2 h post-dose), the “Exposure (nM) (unbound)” value was 1.1 nM and the concentration at 2 h stood at 1840 nM.
With `COc1cc(-c2ccc(COc3cccc(C(CP(C)(=O)O)C4CC4)c3)cc2CN(C(C)C)C(C)C)c(F)cn1` (single isomer, unassigned) [Compound 13, (2-cyclopropyl-2-(3-((3-((diisopropylamino)methyl)-4-(5-fluoro-2-methoxypyridin-4-yl)benzyl)oxy)phenyl)ethyl)(methyl)phosphinic acid], at human GPR40, the EC50 was 50 to 250 nM. For the same compound, in series [1] (2 h post-dose), the “Exposure (nM) (unbound)” value amounted to 1.2 nM and the concentration at 2 h stood at 294 nM.
`COc1ccc(F)c(-c2ccc(COc3cccc([C@@H](CP(C)(=O)O)C4CC4)c3)cc2[C@@H](OC)C(C)(C)C)c1` [Compound 24, ((S)-2-cyclopropyl-2-(3-((2′-fluoro-5′-methoxy-2-((S)-1-methoxy-2,2-dimethylpropyl)-[1,1′-biphenyl]-4-yl)methoxy)phenyl)ethyl)(methyl)phosphinic acid] gave an EC50 on human GPR40 of no more than 50 nM. In series [1] (5 h post-dose), the “Exposure (nM) (unbound)” value was 0.03 nM and the concentration at 5 h came out at 145 nM.
At human GPR40, `COc1cc(-c2ccc(COc3cccc(C(C4CC4)C(C)(C)P(=O)(O)O)c3)cc2CN(C(C)C)C(C)C)c(F)cn1` (centres unmarked) [Compound 22, (1-cyclopropyl-1-(3-((3-((diisopropylamino)methyl)-4-(5-fluoro-2-methoxypyridin-4-yl)benzyl)oxy)phenyl)-2-methylpropan-2-yl)phosphonic acid] displayed an EC50 greater than 1000 nM.
The same measure, in the same setting: the value for `COc1cc(-c2ccc(COc3cc(C(C)CP(C)(=O)O)ccn3)cc2[C@@H](OC)C(C)(C)C)c(F)cn1` (single isomer, unassigned) [Compound 38] was no more than 50 nM; that for `COc1cc(-c2ccc(COc3cccc(C(C)CP(C)(=O)O)c3)cc2CN(C(C)C)C(C)C)c(F)cn1` (single isomer, unassigned) [Compound 35, (2-(3-((3-((diisopropylamino)methyl)-4-(5-fluoro-2-methoxypyridin-4-yl)benzyl)oxy)phenyl)propyl)(methyl)phosphinic acid] was 50 to 250 nM.
On the same count and under the same terms, to `COc1cc(-c2ccc(COc3cc(C(C)CP(C)(=O)O)ccn3)cc2[C@@H](OC)C(C)(C)C)c(F)cn1` (single isomer, unassigned) [Compound 37] belongs no more than 50 nM; to `COc1cc(-c2ccc(COc3cccc(C[C@@H](C)P(C)(=O)O)c3)cc2[C@@H](OC)C(C)(C)C)c(F)cn1` [Compound 41, ((R)-1-(3-((4-(5-fluoro-2-methoxypyridin-4-yl)-3-((S)-1-methoxy-2,2-dimethylpropyl)benzyl)oxy)phenyl)propan-2-yl)(methyl)phosphinic acid], no more than 50 nM.
The same measure, in the same setting: to `COc1cc(-c2ccc(COc3cccc(C(CS(=O)(=O)O)C4CC4)c3)cc2CN(C(C)C)C(C)C)c(F)cn1` (single isomer, unassigned) [Compound 14, 2-cyclopropyl-2-(3-((3-((diisopropylamino)methyl)-4-(5-fluoro-2-methoxypyridin-4-yl)benzyl)oxy)phenyl)ethanesulfonic acid] belongs greater than 1000 nM; to `COc1cccc(-c2ccc(COc3cc([C@@H](CP(C)(=O)O)C4CC4)ccn3)cc2[C@@H](OC)C(C)(C)C)c1` [Compound 30, ((S)-2-cyclopropyl-2-(2-((3′-methoxy-2-((S)-1-methoxy-2,2-dimethylpropyl)-[1,1′-biphenyl]-4-yl)methoxy)pyridin-4-yl)ethyl)(methyl)phosphinic acid], no more than 50 nM.
In turn, `CCC(C[PH](=O)O)c1cccc(OCc2ccc(-c3cc(OC)ncc3F)c(CN(C(C)C)C(C)C)c2)c1` (centres unmarked) [Compound 23, (2-(3-((3-((diisopropylamino)methyl)-4-(5-fluoro-2-methoxypyridin-4-yl)benzyl)oxy)phenyl)butyl)phosphinic acid] returned a concentration for a half-maximal effect (EC50) at human GPR40 greater than 1000 nM.
As to `CCP(=O)(O)CC(c1cccc(OCc2ccc(-c3cc(OC)ncc3F)c(CN(C(C)C)C(C)C)c2)c1)C1CC1` (single isomer, unassigned) [Compound 18, (2-cyclopropyl-2-(3-((3-((diisopropylamino)methyl)-4-(5-fluoro-2-methoxypyridin-4-yl)benzyl)oxy)phenyl)ethyl)(ethyl)phosphinic acid], the half-maximal effective concentration (EC50) at human GPR40 is greater than 1000 nM.
Take `CO[C@H](c1cc(COc2cc([C@@H](CP(C)(=O)O)C3CC3)ccn2)ccc1-c1cc(O)ccc1F)C(C)(C)C` [Compound 31, ((S)-2-cyclopropyl-2-(2-((2′-fluoro-5′-hydroxy-2-((S)-1-methoxy-2,2-dimethylpropyl)-[1,1′-biphenyl]-4-yl)methoxy)pyridin-4-yl)ethyl)(methyl)phosphinic acid]: the concentration for a half-maximal effect (EC50) on human GPR40 is no more than 50 nM.
In turn, `COc1cc(-c2ccc(COc3cccc(C(CP(C)(=O)O)C4CC4)c3)c(CN(C(C)C)C(C)C)c2)c(F)cn1` (centres unmarked) [Compound 16, (2-cyclopropyl-2-(3-((2-((diisopropylamino)methyl)-4-(5-fluoro-2-methoxypyridin-4-yl)benzyl)oxy)phenyl)ethyl)(methyl)phosphinic acid] yielded an EC50 on human GPR40 greater than 1000 nM.
